The source of these data is patent US9408795B2, “Method for enhancing the growth and fullness of hair” (Avon Products, Inc., priority 2011, dated 2016).

The subject of the experiment is FGFR1 gene expression. Nature of the experiment: PCR to assess FGFR1 gene expression in human dermal papilla cells. It counts as cell-based. The settings on record: 48-hour incubation, normalized to 18S, vs DMSO control. The protocol:
Method: PCR to assess FGFR1 gene expression in human dermal papilla cells, following administration of L-4-Thiazolylalanine, Pouzolzia petandra, or cis-6-nonenol.
Human dermal papilla cells (Cell Applications, CA) were plated at 5000 cells/cm^2 in collagen-coated 6-well culture plates in the Papilla Cell Growth Medium (Cell Application, CA) overnight in humidified atmosphere of 5% CO2 at 37° C. When dermal papilla cells reached 80-90% confluence, the medium was replaced with fresh medium and the compounds (L-4-Thiazolylalanine, Pouzolzia petandra, or cis-6-nonenol) dissolved in DMSO were added to the wells in duplicate at a concentration of 0.002% or 0.001%. DMSO was used a vehicle control. Following 48-hour incubation, the medium was removed and the cells were collected in the Lysis/Binding Solution (Ambion, Tex.) after being washed with cold PBS.
Total RNA was extracted from dermal papilla cells by using the RNAqueous kit (Ambion, Tex.) according to the manufacture's instruction. RNA was quantified on the Nanodrop ND-1000 Spectrophotometer (NanoDrop Technologies, DE) and the confirmation of integrity was determined using the Agilent Bioanalyzer before RNA was further processed for cDNA preparation. […]
RNA abundance of FGFR1 was measured using quantitative Real-Time PCR. […] All samples were run in triplicate and normalized to 18S and expressed as a percentage of the control.

`N[C@@H](Cc1cscn1)C(=O)O` [L-4-Thiazolylalanine, 4-L-thiazolylalanine]: the “Percent Inhibition of FGFR1 Expression” value (0.001% (w/v)) turned out to be 59.13%.

Take `CC/C=C\CCCCCO` [cis-6-nonenol]: for the setting “0.002% (w/v)”, the “Percent Inhibition of FGFR1 Expression” value was 28.25%.
